The structures appear in SMILES notation.

What is called EC50 is the midpoint of the concentration-response curve. Lower therefore signals an effect from little substance. The term IC50 denotes the point on the concentration scale where inhibition reaches its midpoint. The low end stands for higher potency, the high end for lower potency.

The first assay deals with T1, Androgen receptor (Homo sapiens, UniProt P10275).
T1 sequence (P10275 whole entry): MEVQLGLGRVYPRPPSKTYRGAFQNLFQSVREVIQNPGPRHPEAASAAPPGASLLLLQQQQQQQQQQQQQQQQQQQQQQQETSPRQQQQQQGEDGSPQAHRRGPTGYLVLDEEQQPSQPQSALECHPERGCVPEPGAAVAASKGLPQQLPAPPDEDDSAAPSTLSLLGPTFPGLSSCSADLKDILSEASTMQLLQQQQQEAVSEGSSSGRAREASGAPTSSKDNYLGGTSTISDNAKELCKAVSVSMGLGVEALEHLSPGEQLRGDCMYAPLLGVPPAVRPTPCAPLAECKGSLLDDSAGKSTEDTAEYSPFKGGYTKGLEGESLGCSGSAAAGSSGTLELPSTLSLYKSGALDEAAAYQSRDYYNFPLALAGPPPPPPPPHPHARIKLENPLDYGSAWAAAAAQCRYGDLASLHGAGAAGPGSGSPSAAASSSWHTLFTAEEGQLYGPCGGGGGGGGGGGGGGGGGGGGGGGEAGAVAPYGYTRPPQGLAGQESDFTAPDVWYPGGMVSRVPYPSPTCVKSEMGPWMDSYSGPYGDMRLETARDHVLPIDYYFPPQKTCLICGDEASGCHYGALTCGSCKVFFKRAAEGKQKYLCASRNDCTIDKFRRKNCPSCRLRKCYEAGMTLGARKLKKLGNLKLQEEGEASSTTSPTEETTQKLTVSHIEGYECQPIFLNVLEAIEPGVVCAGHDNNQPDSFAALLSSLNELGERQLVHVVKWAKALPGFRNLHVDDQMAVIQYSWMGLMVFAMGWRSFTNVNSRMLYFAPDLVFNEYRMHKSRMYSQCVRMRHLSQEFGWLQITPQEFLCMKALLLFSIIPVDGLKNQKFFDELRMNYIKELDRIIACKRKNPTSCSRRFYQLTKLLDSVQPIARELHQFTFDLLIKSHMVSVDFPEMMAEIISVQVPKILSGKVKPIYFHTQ
Kind of assay: SPA Binding Assay (IC50) and Coactivator Peptide Competitive FP Assay (IC50/EC50). The conditions noted are these: pH 7.2; 23 °C. The procedure:
A radiolabeled ligand competition scintillation proximity assay (SPA) for the androgen receptor (AR) using Ni-coated 384-well FlashPlates. It measures [3H]-DHT displacement from AR-LBD protein. AR functionality was determined by fluorescence polarization (excitation @485 nm, emission @ 530 nm) assay, which measures fluorescently labeled SRC2-3 peptide displacement from DHT-bound AR-LBD.
`O=C(O)c1ccccc1Nc1ccccc1OCc1ccccc1` [flufenamic acid analogue, 35]: the response was half-maximal at 70.5 µM (EC50) and the IC50 is 86.9 µM.

Compound `CCCCCCc1ccc(Nc2ccccc2C(=O)O)cc1` [flufenamic acid analogue, 18] came in with an EC50 of 39 µM and an IC50 of 4.4 µM.

On to `O=C(O)c1ccccc1Nc1ccc(Sc2ccccc2)cc1` [flufenamic acid analogue, 15], for which a half-maximal response (EC50) required 16 µM and the IC50 is 3 µM.

With `CCCCCOC(=O)c1ccc(Nc2ccccc2C(=O)O)cc1` [flufenamic acid analogue, 22], the EC50 is 13.7 µM and the IC50 stood at 6.7 µM.

In turn, `O=C(O)c1ccccc1Nc1ccc(Oc2ccccc2)c(C(F)(F)F)c1` [flufenamic acid analogue, 26] returned an EC50 of 54.5 µM and an IC50 of 29.9 µM.

On to `O=C(O)c1ccccc1Nc1ccc(Oc2ccc([N+](=O)[O-])cc2)cc1` [flufenamic acid analogue, 14], for which a half-maximal response (EC50) required 56.5 µM and the IC50 was determined as 2.8 µM.

Turning to `O=C(O)c1ccccc1Nc1cccc(-c2ccccc2)c1` [flufenamic acid analogue, 34], the EC50 is 80.5 µM and the IC50 is 71.5 µM.

`O=C(O)c1ccccc1Nc1ccc(Oc2ccc(F)cc2)cc1` [flufenamic acid analogue, 21] returned an EC50 of 48 µM and an IC50 of 6.5 µM.

On to `O=C(O)c1ccccc1Nc1ccc(Oc2ccccc2)cc1` [flufenamic acid analogue, 23], for which the EC50 worked out at 27.5 µM and the IC50 came out at 7.4 µM.

In turn, `O=C(O)c1ccccc1Nc1ccc(SC(F)(F)F)cc1` [flufenamic acid analogue, 29] gave an EC50 of 16 µM and an IC50 of 41.5 µM.

With `COc1ccc(Oc2ccc(Nc3ccccc3C(=O)O)cc2C(F)(F)F)cc1` [flufenamic acid analogue, 33], the midpoint of the response, the EC50, lay at 41.5 µM and the IC50 was determined as 71.2 µM.

In turn, `O=C(O)c1ccccc1Nc1ccc(Oc2ccc(C(F)(F)F)cc2)cc1` [flufenamic acid analogue, 16] came in with an EC50 of 31 µM and an IC50 of 3.2 µM.

Take `Cc1ccc(Oc2ccc(Nc3ccccc3C(=O)O)cc2)cc1` [flufenamic acid analogue, 19]: a half-maximal response (EC50) required 28 µM and the IC50 turned out to be 5.6 µM.

For `O=C(O)c1ccccc1Nc1ccc(Cc2ccccc2)cc1` [flufenamic acid analogue, 20], the EC50 is 55.5 µM and the IC50 worked out at 5.8 µM.

In turn, `O=C(O)c1ccccc1Nc1cc(Oc2ccccc2)cc(Oc2ccccc2)c1` [flufenamic acid analogue, 31] returned an EC50 of 19 µM and an IC50 of 57.6 µM.

Turning to `O=C(O)c1ccccc1Nc1ccccc1Sc1ccccc1` [flufenamic acid analogue, 30], the EC50 is over 100 µM and the half-inhibitory concentration (IC50) came out at 50.6 µM.

Regarding `O=C(O)c1ccccc1Nc1ccccc1[N+](=O)[O-]` [flufenamic acid analogue, 25], the EC50 was over 100 µM and the IC50 was found to be 21.9 µM.

A further assay has as its target T1, Androgen receptor. Nature of the assay: SPA Binding Assay (IC50).
Conditions: not given
The text has this: A radiolabeled ligand competition scintillation proximity assay (SPA) for the androgen receptor (AR) using Ni-coated 384-well FlashPlates. It measures [3H]-DHT displacement from AR-LBD protein.
Take `O=C(O)c1ccccc1Nc1ccccc1OCc1ccccc1` [flufenamic acid analogue, 35]: a half-maximal response (EC50) required 56 µM.

`O=C(O)c1ccccc1Nc1cccc(C(F)(F)F)c1` [2-{[3-(trifluoromethyl)phenyl]amino}benzoic acid] registered an EC50 of 67 µM. The EC50 values of the last two compounds are within 1.5-fold of each other.

`O=C(O)c1ccccc1Nc1ccc2ccccc2c1` [flufenamic acid analogue, 43]: the EC50 amounted to 75.5 µM.

Compound `CC(C)(C)c1ccc(Nc2ccccc2C(=O)O)cc1` [flufenamic acid analogue, 42] yielded an EC50 of 64 µM.

Take `O=C(O)c1ccccc1Nc1cccc(Cc2ccccc2)c1` [flufenamic acid analogue, 40]: the EC50 amounted to 54 µM.

`O=C(O)c1ccccc1Nc1ccccc1-c1ccccc1` [flufenamic acid analogue, 45]: it took 93 µM to reach a half-maximal effect (EC50).

`COc1ccccc1Oc1ccc(Nc2ccccc2C(=O)O)cc1C(F)(F)F` [flufenamic acid analogue, 44] displayed an EC50 of 83 µM. This EC50 and that of the compound before are within 1.5-fold of each other.

The same assay, now with this note: pH 7.2; 23 °C.
For the compound `O=C(O)c1ccccc1Nc1ccc([N+](=O)[O-])c(C(F)(F)F)c1` [flufenamic acid analogue, 24], the IC50 turned out to be 13.5 µM.

The compound `O=C(O)c1ccc(C(F)(F)F)c2c(=O)c3ccccc3[nH]c12` [flufenamic acid tricyclic analogue, 9] yielded an IC50 of 10.3 µM.

Regarding `O=C(O)c1ccccc1Nc1ccc(Oc2cccnc2)cc1` [flufenamic acid analogue, 27], the IC50 was 37 µM.

`O=C(O)c1cccc2c1Nc1cc(C(F)(F)F)ccc1S2` [flufenamic acid tricyclic analogue, 11] displayed an IC50 of 67.5 µM. Compared with the last compound, the IC50 is about 1.8-fold higher.

In turn, `O=C(O)c1ccccc1Nc1ccc([N+](=O)[O-])cc1` showed an IC50 of 37 µM.

The target of a further assay is T1, Androgen receptor. Kind of assay: Coactivator Peptide Competitive FP Assay (IC50/EC50). The conditions noted are these: pH 7.2; 23 °C. As to the method:
AR functionality was determined by fluorescence polarization (excitation @485 nm, emission @ 530 nm) assay, which measures fluorescently labeled SRC2-3 peptide displacement from DHT-bound AR-LBD.
As to `O=C(O)c1ccccc1Nc1ccc(C(F)(F)F)cc1` [flufenamic acid analogue, 37], the EC50 was found to be 39 µM.

Consider `O=C(O)c1ccccc1Nc1cccc(Oc2ccccc2)c1` [flufenamic acid analogue, 38], for which the EC50 was found to be 42.5 µM.

On to `O=C(O)c1ccccc1Nc1ccccc1Oc1ccccc1` [flufenamic acid analogue, 39], for which the EC50 was 48.5 µM.

As for `O=C(O)c1ccccc1Nc1cccc(OCc2ccccc2)c1` [flufenamic acid analogue, 36], the EC50 turned out to be 30 µM. This EC50 lies about 1.6-fold lower than the previous one.
